From ChEMBL document CHEMBL5104172, “Design, synthesis, and antibacterial activity of derivatives of Tryptophanyl-tRNA synthetase inhibitor indolmycin” (Eur J Med Chem, 2022)
In brackets after ≈: the same amount, converted by molar mass.

Legend:
[1] = tested on: Staphylococcus aureus; assay: Antibacterial activity against methicillin-sensitive Staphylococcus aureus MSSA17-2 measured by liquid dilution method; assay type: functional
[2] = tested on: Staphylococcus aureus; assay: Antibacterial activity against methicillin-resistant Staphylococcus aureus MRSA17-6 measured by liquid dilution method; assay type: functional
[3] = tested on: Staphylococcus aureus; assay: Antibacterial activity against methicillin-sensitive Staphylococcus aureus MSSA17-3 measured by liquid dilution method; assay type: functional
[4] = tested on: Staphylococcus epidermidis; assay: Antibacterial activity against methicillin-sensitive Staphylococcus epidermidis MSSE17-3 measured by liquid dilution method; assay type: functional
[5] = tested on: Staphylococcus aureus; assay: Antibacterial activity against methicillin-resistant Staphylococcus aureus ATCC 33591 measured by liquid dilution method; assay type: functional
[6] = tested on: Staphylococcus epidermidis; assay: Antibacterial activity against methicillin-resistant Staphylococcus epidermidis MRSE17-4 measured by liquid dilution method; assay type: functional
[7] = tested on: Staphylococcus aureus; assay: Antibacterial activity against methicillin-resistant Staphylococcus aureus MRSA17-2 measured by liquid dilution method; assay type: functional
[8] = tested on: Staphylococcus aureus; assay: Antibacterial activity against vancomycin-intermediate Staphylococcus aureus ATCC 700699 measured by liquid dilution method; assay type: functional
[9] = tested on: Staphylococcus aureus; assay: Antibacterial activity against methicillin-resistant Staphylococcus aureus MRSA17-5 measured by liquid dilution method; assay type: functional
[10] = tested on: Staphylococcus epidermidis; assay: Antibacterial activity against methicillin-resistant Staphylococcus epidermidis MRSE17-6 measured by liquid dilution method; assay type: functional
[11] = tested on: Staphylococcus epidermidis; assay: Antibacterial activity against methicillin-resistant Staphylococcus epidermidis MRSE17-2 measured by liquid dilution method; assay type: functional
[12] = tested on: Enterococcus faecium; assay: Antibacterial activity against Enterococcus faecium EFM17-1 measured by liquid dilution method; assay type: functional
[13] = tested on: Staphylococcus aureus; assay: Antibacterial activity against methicillin-resistant Staphylococcus aureus MRSA17-1 measured by liquid dilution method; assay type: functional
[14] = tested on: Staphylococcus epidermidis; assay: Antibacterial activity against methicillin-resistant Staphylococcus epidermidis MRSE17-1 measured by liquid dilution method; assay type: functional
[15] = tested on: Staphylococcus aureus; assay: Antibacterial activity against methicillin-sensitive Staphylococcus aureus MSSA17-1 measured by liquid dilution method; assay type: functional
[16] = tested on: Staphylococcus aureus; assay: Antibacterial activity against Staphylococcus aureus ATCC 29213 measured by liquid dilution method; assay type: functional
[17] = tested on: Staphylococcus epidermidis; assay: Antibacterial activity against methicillin-resistant Staphylococcus epidermidis MRSE17-3 measured by liquid dilution method; assay type: functional
[18] = tested on: Enterococcus faecalis; assay: Antibacterial activity against Enterococcus faecalis ATCC 29212 measured by liquid dilution method; assay type: functional
[19] = tested on: Enterococcus faecalis; assay: Antibacterial activity against Enterococcus faecalis EFA17-1 measured by liquid dilution method; assay type: functional
[20] = tested on: Enterococcus faecium; assay: Antibacterial activity against Enterococcus faecium EFM17-2 measured by liquid dilution method; assay type: functional
[21] = tested on: Staphylococcus aureus; assay: Antibacterial activity against methicillin-resistant Staphylococcus aureus ATCC 43300 measured by liquid dilution method; assay type: functional
[22] = tested on: Staphylococcus epidermidis; assay: Antibacterial activity against methicillin-sensitive Staphylococcus epidermidis MSSE17-2 measured by liquid dilution method; assay type: functional
[23] = tested on: Staphylococcus aureus; assay: Antibacterial activity against methicillin-resistant Staphylococcus aureus MRSA17-3 measured by liquid dilution method; assay type: functional
[24] = tested on: Staphylococcus epidermidis; assay: Antibacterial activity against methicillin-sensitive Staphylococcus epidermidis MSSE17-1 measured by liquid dilution method; assay type: functional
[25] = tested on: Staphylococcus aureus; assay: Antibacterial activity against vancomycin-intermediate Staphylococcus aureus ATCC 700788 measured by liquid dilution method; assay type: functional
[26] = Plasma protein binding in CD-1 mouse plasma incubated for 4 hrs at 2 uM measured by LC/MS/MS analysis; assay type: ADME, cell-free; conditions: read-out: PPB (converted)
[27] = Plasma protein binding in CD-1 mouse plasma incubated for 4 hrs and assessed as unbound fraction at 2 uM measured by LC/MS/MS analysis; assay type: ADME, cell-free

`CNC1=NC(=O)[C@H]([C@H](C)c2c[nH]c3c(F)cccc23)O1` gave an MIC [1] of 0.5 µg/mL (≈ 1.82 µM), an MIC [2] of 1 µg/mL (≈ 3.63 µM) and an MIC [3] of 0.5 µg/mL (≈ 1.82 µM). For the same compound, the MIC [4] was 4 µg/mL (≈ 14.5 µM), the MIC [5] was 8 µg/mL (≈ 29.1 µM) and the MIC [6] was 0.5 µg/mL (≈ 1.82 µM). The MIC [7] was 0.5 µg/mL (≈ 1.82 µM), the MIC [8] was 2 µg/mL (≈ 7.27 µM) and the MIC [9] was 1 µg/mL (≈ 3.63 µM). The MIC [10] was 0.5 µg/mL (≈ 1.82 µM), the MIC [11] was 0.25 µg/mL (≈ 0.908 µM) and the MIC [12] was 2 µg/mL (≈ 7.27 µM). The MIC [13] was 0.5 µg/mL (≈ 1.82 µM), the MIC [14] was 0.5 µg/mL (≈ 1.82 µM) and the MIC [15] was 1 µg/mL (≈ 3.63 µM). It also gave an MIC [16] of 8 µg/mL (≈ 29.1 µM), an MIC [17] of 0.5 µg/mL (≈ 1.82 µM) and an MIC [18] of 2 µg/mL (≈ 7.27 µM). For the same compound, the MIC [19] was 2 µg/mL (≈ 7.27 µM), the MIC [20] was 4 µg/mL (≈ 14.5 µM) and the MIC [21] was 4 µg/mL (≈ 14.5 µM). For the same compound, the MIC [22] was 4 µg/mL (≈ 14.5 µM), the MIC [23] was 1 µg/mL (≈ 3.63 µM) and the MIC [24] was 2 µg/mL (≈ 7.27 µM). It also gave an MIC [25] of 4 µg/mL (≈ 14.5 µM).

Work on `CNC1=NC(=O)[C@H]([C@H](C)c2c[nH]c3cccc(Br)c23)O1` yielded an MIC [1] of 4 µg/mL (≈ 11.9 µM), an MIC [2] of 2 µg/mL (≈ 5.95 µM) and an MIC [3] of 2 µg/mL (≈ 5.95 µM). The MIC [4] was 1 µg/mL (≈ 2.97 µM), the MIC [5] was 4 µg/mL (≈ 11.9 µM) and the MIC [6] was 2 µg/mL (≈ 5.95 µM). The MIC [7] was 2 µg/mL (≈ 5.95 µM), the MIC [8] was 1 µg/mL (≈ 2.97 µM) and the MIC [9] was 2 µg/mL (≈ 5.95 µM). The MIC [10] was 2 µg/mL (≈ 5.95 µM), the MIC [11] was 2 µg/mL (≈ 5.95 µM) and the MIC [12] was > 128 µg/mL. The MIC [13] was 2 µg/mL (≈ 5.95 µM), the MIC [14] was 2 µg/mL (≈ 5.95 µM) and the MIC [15] was 2 µg/mL (≈ 5.95 µM). The MIC [16] was 4 µg/mL (≈ 11.9 µM), the MIC [17] was 0.5 µg/mL (≈ 1.49 µM) and the MIC [18] was > 128 µg/mL. The MIC [19] was > 128 µg/mL, the MIC [20] was > 128 µg/mL and the MIC [21] was 2 µg/mL (≈ 5.95 µM). It also gave an MIC [22] of 1 µg/mL (≈ 2.97 µM), an MIC [23] of 1 µg/mL (≈ 2.97 µM) and an MIC [24] of 1 µg/mL (≈ 2.97 µM). For the same compound, the MIC [25] was 2 µg/mL (≈ 5.95 µM).

With `CNC1=NC(=O)[C@@H]([C@@H](C)c2c[nH]c3cc(F)ccc23)O1` the MIC [1] was > 128 µg/mL, the MIC [2] was > 128 µg/mL and the MIC [3] was > 128 µg/mL. For the same compound, the MIC [4] was > 128 µg/mL, the MIC [5] was > 128 µg/mL and the MIC [6] was > 128 µg/mL. The MIC [7] was > 128 µg/mL, the MIC [8] was > 128 µg/mL and the MIC [9] was > 128 µg/mL. The MIC [10] was > 128 µg/mL, the MIC [11] was > 128 µg/mL and the MIC [12] was > 128 µg/mL. For the same compound, the MIC [13] was > 128 µg/mL, the MIC [14] was > 128 µg/mL and the MIC [15] was > 128 µg/mL. For the same compound, the MIC [16] was > 128 µg/mL, the MIC [17] was > 128 µg/mL and the MIC [18] was > 128 µg/mL. For the same compound, the MIC [19] was > 128 µg/mL, the MIC [20] was > 128 µg/mL and the MIC [21] was > 128 µg/mL. The MIC [22] was > 128 µg/mL, the MIC [23] was > 128 µg/mL and the MIC [24] was > 128 µg/mL. The MIC [25] was > 128 µg/mL.

In the case of `CNC1=NC(=O)[C@@H]([C@@H](C)c2c[nH]c3cccc(C)c23)O1`, the MIC [1] is reported as > 128 µg/mL, the MIC [2] is reported as > 128 µg/mL and the MIC [3] is reported as > 128 µg/mL. The MIC [4] was > 128 µg/mL, the MIC [5] was > 128 µg/mL and the MIC [6] was > 128 µg/mL. The MIC [7] was > 128 µg/mL, the MIC [8] was > 128 µg/mL and the MIC [9] was > 128 µg/mL. For the same compound, the MIC [10] was > 128 µg/mL, the MIC [11] was > 128 µg/mL and the MIC [12] was > 128 µg/mL. The MIC [13] was > 128 µg/mL, the MIC [14] was > 128 µg/mL and the MIC [15] was > 128 µg/mL. The MIC [16] was > 128 µg/mL, the MIC [17] was > 128 µg/mL and the MIC [18] was > 128 µg/mL. The MIC [19] was > 128 µg/mL, the MIC [20] was > 128 µg/mL and the MIC [21] was > 128 µg/mL. For the same compound, the MIC [22] was > 128 µg/mL, the MIC [23] was > 128 µg/mL and the MIC [24] was > 128 µg/mL. The MIC [25] was > 128 µg/mL.

`CNC1=NC(=O)[C@@H]([C@@H](C)c2c[nH]c3cccc(Br)c23)O1` gave an MIC [1] of 128 µg/mL (≈ 381 µM), an MIC [2] of 128 µg/mL (≈ 381 µM) and an MIC [3] of 128 µg/mL (≈ 381 µM). For the same compound, the MIC [4] was 128 µg/mL (≈ 381 µM), the MIC [5] was 128 µg/mL (≈ 381 µM) and the MIC [6] was 128 µg/mL (≈ 381 µM). It also gave an MIC [7] of 128 µg/mL (≈ 381 µM), an MIC [8] of 128 µg/mL (≈ 381 µM) and an MIC [9] of 128 µg/mL (≈ 381 µM). The MIC [10] was 128 µg/mL (≈ 381 µM), the MIC [11] was 128 µg/mL (≈ 381 µM) and the MIC [12] was > 128 µg/mL. For the same compound, the MIC [13] was 128 µg/mL (≈ 381 µM), the MIC [14] was > 128 µg/mL and the MIC [15] was 128 µg/mL (≈ 381 µM). For the same compound, the MIC [16] was > 128 µg/mL, the MIC [17] was > 128 µg/mL and the MIC [18] was > 128 µg/mL. The MIC [19] was > 128 µg/mL, the MIC [20] was > 128 µg/mL and the MIC [21] was 128 µg/mL (≈ 381 µM). It also gave an MIC [22] of 64 µg/mL (≈ 190 µM), an MIC [23] of 64 µg/mL (≈ 190 µM) and an MIC [24] of 128 µg/mL (≈ 381 µM). For the same compound, the MIC [25] was 128 µg/mL (≈ 381 µM).

For `CNC1=NC(=O)[C@H]([C@H](C)c2c[nH]c3cccc(C)c23)O1`, the MIC [1] was 1 µg/mL (≈ 3.69 µM), the MIC [2] was 0.5 µg/mL (≈ 1.84 µM) and the MIC [3] was 0.5 µg/mL (≈ 1.84 µM). For the same compound, the MIC [4] was 0.25 µg/mL (≈ 0.921 µM), the MIC [5] was 1 µg/mL (≈ 3.69 µM) and the fraction unbound at 4 h, 2 µM [26] was 0.276. It also gave an MIC [6] of 0.5 µg/mL (≈ 1.84 µM), an MIC [7] of 0.5 µg/mL (≈ 1.84 µM) and a fraction unbound at 4 h, 2 µM [27] of 0.276. It also gave an MIC [8] of 0.5 µg/mL (≈ 1.84 µM), an MIC [9] of 1 µg/mL (≈ 3.69 µM) and an MIC [10] of 0.5 µg/mL (≈ 1.84 µM). For the same compound, the MIC [11] was 0.5 µg/mL (≈ 1.84 µM), the MIC [12] was > 128 µg/mL and the MIC [13] was 0.5 µg/mL (≈ 1.84 µM). The MIC [14] was 0.5 µg/mL (≈ 1.84 µM), the MIC [15] was 1 µg/mL (≈ 3.69 µM) and the MIC [16] was 1 µg/mL (≈ 3.69 µM). The MIC [17] was 0.125 µg/mL (≈ 0.461 µM), the MIC [18] was > 128 µg/mL and the MIC [19] was > 128 µg/mL. The MIC [20] was > 128 µg/mL, the MIC [21] was 0.5 µg/mL (≈ 1.84 µM) and the MIC [22] was 0.25 µg/mL (≈ 0.921 µM). For the same compound, the MIC [23] was 0.5 µg/mL (≈ 1.84 µM), the MIC [24] was 0.125 µg/mL (≈ 0.461 µM) and the MIC [25] was 0.5 µg/mL (≈ 1.84 µM).
